The source of these data is US9423396B2, “Bodipy structure fluorescence probes for diverse biological applications” (National University of Singapore, priority 2011, dated 2016).

This series is described as follows: Spectroscopic measurements (absorption, emission, quantum yield, extinction coefficient). It is filed as physicochemical.
Where [1] appears, read: BDNCA library, difference emission minus absorption.
Setting [2] is: BDNCA library, extinction coefficient; in M-1 cm-1 (unit assumed).
The mark [3] stands for this setting: BDNCA library, fluorescence emission.
The mark [4] stands for this setting: absorption maximum, BDNCA library.
[5] abbreviates: difference of emission and absorption maxima.
Setting [6] is: extinction coefficient, BDNCA library; in M-1 cm-1 (unit assumed).
The mark [7] stands for this setting: fluorescence emission maximum, BDNCA library.

In the case of `CC1=CC(/C=C/c2c(C)cccc2Cl)=[N+]2C1=C(c1ccc(NC(=O)CCl)cc1)c1cccn1[B-]2(F)F` [BDNCA-285], where the note is “BDNCA library”, the “Qunt. Yield” value was 0.12. The Abs (BDNCA library, absorption) is 544 nm. Further, the Flu-Abs under setting [1] is given as 27. Further, under setting [2], the ε is 44,211. Besides, the Flu under setting [3] is on record as 571.
As for `CC1=CC(/C=C/c2ccc(C)c(Cl)c2)=[N+]2C1=C(c1ccc(NC(=O)CCl)cc1)c1cccn1[B-]2(F)F` [BDNCA-289], the “Qunt. Yield” value (BDNCA library) is recorded as 0.16. For the setting “BDNCA library, absorption”, this molecule gave an Abs of 560 nm. The same molecule returned a Flu-Abs under setting [1] of 26. Further, the ε under setting [2] is 60,686. The same molecule yielded a Flu under setting [3] of 586.
Taken in the same sequence, the figures for `CC1=CC(/C=C/c2ccc(Oc3cccc(Cl)c3)cc2)=[N+]2C1=C(c1ccc(NC(=O)CCl)cc1)c1cccn1[B-]2(F)F` [BDNCA-290] were 0.14, 557 nm, 20, 65,629 and 577.
For the molecule `COc1cc(/C=C/C2=[N+]3C(=C(c4ccc(NC(=O)CCl)cc4)c4cccn4[B-]3(F)F)C(C)=C2)cc(Cl)c1OC` [BDNCA-294], under “BDNCA library”, the “Qunt. Yield” value worked out at 0.14. Besides, the Abs (BDNCA library, absorption) came out at 560 nm. This molecule had a Flu-Abs under setting [1] of 21. Moreover, the ε under setting [2] is on record as 63,158. Also, the Flu under setting [3] came out at 581.
Consider `COc1cccc(Oc2ccccc2/C=C/C2=[N+]3C(=C(c4ccc(NC(=O)CCl)cc4)c4cccn4[B-]3(F)F)C(C)=C2)c1` [BDNCA-298], for which the “Qunt. Yield” value (BDNCA library) was found to be 0.14. Further, the Abs (BDNCA library, absorption) is 558 nm. The molecule further registered a Flu-Abs under setting [1] of 23. In addition, the ε under setting [2] is 67,277. The Flu under setting [3] was 581.
Taken in the same sequence, the figures for `CC1=CC(/C=C/c2cccc(Oc3ccc(Cl)c(Cl)c3)c2)=[N+]2C1=C(c1ccc(NC(=O)CCl)cc1)c1cccn1[B-]2(F)F` [BDNCA-299] were 0.09, 556 nm, 19, 49,703 and 575.
Taken in the same sequence, the figures for `CC1=CC(/C=C/c2ccc(Oc3ccc(C)cc3)cc2)=[N+]2C1=C(c1ccc(NC(=O)CCl)cc1)c1cccn1[B-]2(F)F` [BDNCA-300] were 0.21, 563 nm, 27, 102,151 and 590.
With `COc1cc2ccccc2c(/C=C/C2=[N+]3C(=C(c4ccc(NC(=O)CCl)cc4)c4cccn4[B-]3(F)F)C(C)=C2)c1OC` [BDNCA-301], for the setting “BDNCA library”, the “Qunt. Yield” value came to 0.24. The molecule further had an Abs (BDNCA library, absorption) of 567 nm. The Flu-Abs under setting [1] was found to be 36. Besides, the ε under setting [2] is on record as 85,950. The molecule also gave a Flu under setting [3] of 603.
Taken in the same sequence, the figures for `CC1=CC(/C=C/c2cccc(I)c2)=[N+]2C1=C(c1ccc(NC(=O)CCl)cc1)c1cccn1[B-]2(F)F` [BDNCA-303] were 0.12, 556 nm, 19, 70,847 and 575.
Taken in the same sequence, the figures for `Cc1cc(/C=C/c2ccc(Oc3ccc(C=O)cc3)cc2)n2c1C(c1ccc(NC(=O)CCl)cc1)=C1C=CC=[N+]1[B-]2(F)F` [BDNCA-304] were 0.02, 561 nm, 25, 18,673 and 586.
Taken in the same sequence, the figures for `COc1cc(F)c(/C=C/c2cc(C)c3n2[B-](F)(F)[N+]2=CC=CC2=C3c2ccc(NC(=O)CCl)cc2)cc1OC` [BDNCA-305] were 0.22, 568 nm, 38, 153,227 and 606.
The molecule `Cc1cc(/C=C/c2ccc(F)c(Oc3ccccc3)c2)n2c1C(c1ccc(NC(=O)CCl)cc1)=C1C=CC=[N+]1[B-]2(F)F` [BDNCA-311] yielded an Abs under setting [4] of 555 nm. The Flu-Abs under setting [5] was 20. The ε under setting [6] is reported as 57,117. The same molecule yielded a Flu under setting [7] of 575. The “Qunt. Yield” value (quantum yield, BDNCA library) stood at 0.09.
On the same counts, the results for `COc1cccc(/C=C/C2=[N+]3C(=C(c4ccc(NC(=O)CCl)cc4)c4cccn4[B-]3(F)F)C(C)=C2)c1F` [BDNCA-314] are 554 nm, 21, 52,998, 575 and 0.11.
Regarding `CC1=CC(/C=C/c2cccc([N+](=O)[O-])c2O)=[N+]2C1=C(c1ccc(NC(=O)CCl)cc1)c1cccn1[B-]2(F)F` [BDNCA-315], under setting [4], the Abs stood at 655 nm. The ε under setting [6] is 15,652. Further, the Flu result under setting [7] was “weak”. In addition, the “Qunt. Yield” value (quantum yield, BDNCA library) is “weak”.
`CCOc1cccc(/C=C/C2=[N+]3C(=C(c4ccc(NC(=O)CCl)cc4)c4cccn4[B-]3(F)F)C(C)=C2)c1OCC` [BDNCA-317] had an Abs under setting [4] of 557 nm. The same molecule displayed a Flu-Abs under setting [5] of 22. The ε under setting [6] is listed as 45,858. This molecule also showed a Flu under setting [7] of 579. Besides, where the note is “quantum yield, BDNCA library”, the “Qunt. Yield” value is recorded as 0.08.
On the same counts, the results for `Cc1cc(/C=C/c2cc(F)ccc2O)n2c1C(c1ccc(NC(=O)CCl)cc1)=C1C=CC=[N+]1[B-]2(F)F` [BDNCA-318] are 564 nm, 25, 18,398, 589 and 0.02.
On to `Cc1cc(/C=C/c2ccc(-c3ccccc3)o2)n2c1C(c1ccc(NC(=O)CCl)cc1)=C1C=CC=[N+]1[B-]2(F)F` [BDNCA-319], for which the Abs under setting [4] worked out at 598 nm. The Flu-Abs under setting [5] was determined as 58. Besides, under setting [6], the ε is reported as 54,096. Under setting [7], this molecule showed a Flu of 656. Moreover, the “Qunt. Yield” value (quantum yield, BDNCA library) turned out to be 0.05.
On the same counts, the results for `CCOc1c(/C=C/C2=[N+]3C(=C(c4ccc(NC(=O)CCl)cc4)c4cccn4[B-]3(F)F)C(C)=C2)cccc1OC` [BDNCA-320] are 557 nm, 24, 59,588, 581 and 0.10.
Taken in the same sequence, the figures for `CC1=CC(/C=C/c2ccc(Oc3ccc(F)cc3)cc2)=[N+]2C1=C(c1ccc(NC(=O)CCl)cc1)c1cccn1[B-]2(F)F` [BDNCA-322] were 561 nm, 27, 67,826, 588 and 0.14.
On the same counts, the results for `Cc1cc(/C=C/c2ccc3c(c2)OC(F)(F)O3)n2c1C(c1ccc(NC(=O)CCl)cc1)=C1C=CC=[N+]1[B-]2(F)F` [BDNCA-332] are 556 nm, 19, 27,735, 575 and 0.05.
`CSc1ccccc1/C=C/C1=[N+]2C(=C(c3ccc(NC(=O)CCl)cc3)c3cccn3[B-]2(F)F)C(C)=C1` [BDNCA-333] showed an Abs under setting [4] of 560 nm. Besides, the Flu-Abs under setting [5] is recorded as 26. In addition, under setting [6], the ε is listed as 63,707. Further, under setting [7], the Flu turned out to be 586. Moreover, where the note is “quantum yield, BDNCA library”, the “Qunt. Yield” value stood at 0.12.
Regarding `COc1ccc(/C=C/C2=[N+]3C(=C(c4ccc(NC(=O)CCl)cc4)c4cccn4[B-]3(F)F)C(C)=C2)cc1C` [BDNCA-335], under setting [4], the Abs is 569 nm. The Flu-Abs under setting [5] turned out to be 33. Also, the ε under setting [6] is recorded as 41,739. Under setting [7], this molecule gave a Flu of 602. Also, the “Qunt. Yield” value (quantum yield, BDNCA library) was 0.08.
Taken in the same sequence, the figures for `CCOc1ccccc1/C=C/c1cc(C)c2n1[B-](F)(F)[N+]1=CC=CC1=C2c1ccc(NC(=O)CCl)cc1` [BDNCA-336] were 562 nm, 23, 63,982, 585 and 0.12.
On the same counts, the results for `CC1=CC(/C=C/c2c3ccccc3c(C)c3ccccc23)=[N+]2C1=C(c1ccc(NC(=O)CCl)cc1)c1cccn1[B-]2(F)F` [BDNCA-340] are 532 nm, 17, 36,247, 549 and 0.04.
Consider `CC1=CC(/C=C/c2ccccc2Oc2ccc(F)cc2)=[N+]2C1=C(c1ccc(NC(=O)CCl)cc1)c1cccn1[B-]2(F)F` [BDNCA-341], for which the Abs under setting [4] was found to be 558 nm. The same molecule gave a Flu-Abs under setting [5] of 22. The ε under setting [6] was 58,764. Further, the Flu under setting [7] amounted to 580. The “Qunt. Yield” value (quantum yield, BDNCA library) is 0.10.
In turn, `CC1=CC(/C=C/c2cc(C)c(C)cc2C)=[N+]2C1=C(c1ccc(NC(=O)CCl)cc1)c1cccn1[B-]2(F)F` [BDNCA-343] showed an Abs under setting [4] of 562 nm. Moreover, the Flu-Abs under setting [5] came to 26. Besides, the ε under setting [6] was 28,284. The molecule also returned a Flu under setting [7] of 588. Moreover, the “Qunt. Yield” value (quantum yield, BDNCA library) turned out to be 0.06.
`CC1=CC(/C=C/c2cccc(OC(F)(F)C(F)F)c2)=[N+]2C1=C(c1ccc(NC(=O)CCl)cc1)c1cccn1[B-]2(F)F` [BDNCA-345] gave an Abs under setting [4] of 621 nm. Moreover, the ε under setting [6] was 12,082. For the same molecule, the Flu entry under setting [7] was “weak”. In addition, under “quantum yield, BDNCA library”, the “Qunt. Yield” value is “weak”.
For `Cc1cc(/C=C/c2cc(OC(F)(F)F)ccc2O)n2c1C(c1ccc(NC(=O)CCl)cc1)=C1C=CC=[N+]1[B-]2(F)F` [BDNCA-346], under setting [4], the Abs stood at 561 nm. This molecule also gave a Flu-Abs under setting [5] of 23. For the same molecule, the ε under setting [6] is on record as 16,476. In addition, the Flu under setting [7] is on record as 584. Besides, under “quantum yield, BDNCA library”, the “Qunt. Yield” value was 0.02.
On to `COc1ccc(/C=C/C2=[N+]3C(=C(c4ccc(NC(=O)CCl)cc4)c4cccn4[B-]3(F)F)C(C)=C2)c(OC)c1C` [BDNCA-347], for which the Abs under setting [4] came out at 569 nm. Under setting [5], this molecule displayed a Flu-Abs of 35. For the same molecule, the ε under setting [6] is 34,874. The molecule also displayed a Flu under setting [7] of 604. Moreover, the “Qunt. Yield” value (quantum yield, BDNCA library) was found to be 0.08.
